From ChEMBL document CHEMBL4507276 (2021)

Assays:
[1] = biological target: MAP kinase-activated protein kinase 2 (Homo sapiens) (UniProt P49137); settings: Compound concentration 1000.0 nM
[2] = biological target: Death-associated protein kinase 3 (Homo sapiens) (UniProt O43293); experiment: DAPK3 Invitrogen selectivity data (BI); settings: Compound concentration 3.0 uM
[3] = biological target: Glutamate NMDA receptor (Rattus norvegicus) (UniProt P35439+Q00959+Q00960+Q00961+Q62645+Q8VHN2+Q9R1M7); experiment: PCP/R Cerep selectivity data (BI); format: protein-complex assay; settings: Compound concentration 20.0 uM
[4] = biological target: T1, Serine/threonine-protein kinase TAO2 (Homo sapiens) (UniProt Q9UL54); experiment: TAOK2 Invitrogen selectivity data (BI); settings: Compound concentration 3.0 uM
T1 sequence (whole entry): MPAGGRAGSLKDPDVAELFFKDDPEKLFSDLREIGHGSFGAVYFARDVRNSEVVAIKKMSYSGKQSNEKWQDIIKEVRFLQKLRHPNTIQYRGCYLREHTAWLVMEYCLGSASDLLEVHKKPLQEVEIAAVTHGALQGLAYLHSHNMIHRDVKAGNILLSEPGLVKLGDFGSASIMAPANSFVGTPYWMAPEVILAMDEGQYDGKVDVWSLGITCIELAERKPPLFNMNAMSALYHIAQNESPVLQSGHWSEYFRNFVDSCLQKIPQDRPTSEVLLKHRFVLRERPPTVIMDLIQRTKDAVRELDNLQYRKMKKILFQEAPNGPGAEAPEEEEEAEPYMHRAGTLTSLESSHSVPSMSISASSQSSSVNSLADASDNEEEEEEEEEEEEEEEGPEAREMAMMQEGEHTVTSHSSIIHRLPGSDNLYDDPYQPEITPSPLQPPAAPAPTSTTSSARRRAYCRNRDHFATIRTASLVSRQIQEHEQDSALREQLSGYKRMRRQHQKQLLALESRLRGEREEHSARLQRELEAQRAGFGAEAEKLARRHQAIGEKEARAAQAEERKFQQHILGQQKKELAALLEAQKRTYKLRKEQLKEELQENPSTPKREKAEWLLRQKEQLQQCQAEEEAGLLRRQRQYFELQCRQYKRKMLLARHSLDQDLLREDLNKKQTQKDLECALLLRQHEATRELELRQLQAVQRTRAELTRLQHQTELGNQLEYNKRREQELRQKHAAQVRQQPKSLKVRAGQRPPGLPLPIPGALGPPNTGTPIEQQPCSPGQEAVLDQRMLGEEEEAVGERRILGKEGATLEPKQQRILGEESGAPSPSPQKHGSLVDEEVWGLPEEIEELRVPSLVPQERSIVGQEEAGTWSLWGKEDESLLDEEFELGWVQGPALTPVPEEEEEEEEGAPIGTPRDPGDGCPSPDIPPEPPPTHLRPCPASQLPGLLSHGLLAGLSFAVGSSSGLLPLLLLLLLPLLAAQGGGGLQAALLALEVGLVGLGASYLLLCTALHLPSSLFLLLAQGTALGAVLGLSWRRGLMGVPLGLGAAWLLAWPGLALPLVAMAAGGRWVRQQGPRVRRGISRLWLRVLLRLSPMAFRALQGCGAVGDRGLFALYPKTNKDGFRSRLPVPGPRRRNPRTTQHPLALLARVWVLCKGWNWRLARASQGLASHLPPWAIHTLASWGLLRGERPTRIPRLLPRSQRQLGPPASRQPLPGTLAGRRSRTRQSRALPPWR

[5] = biological target: Alpha-1D adrenergic receptor (Homo sapiens) (UniProt P25100); settings: Compound concentration 10.0 uM
Chain of Alpha-1D adrenergic receptor (Homo sapiens) (P25100 whole entry): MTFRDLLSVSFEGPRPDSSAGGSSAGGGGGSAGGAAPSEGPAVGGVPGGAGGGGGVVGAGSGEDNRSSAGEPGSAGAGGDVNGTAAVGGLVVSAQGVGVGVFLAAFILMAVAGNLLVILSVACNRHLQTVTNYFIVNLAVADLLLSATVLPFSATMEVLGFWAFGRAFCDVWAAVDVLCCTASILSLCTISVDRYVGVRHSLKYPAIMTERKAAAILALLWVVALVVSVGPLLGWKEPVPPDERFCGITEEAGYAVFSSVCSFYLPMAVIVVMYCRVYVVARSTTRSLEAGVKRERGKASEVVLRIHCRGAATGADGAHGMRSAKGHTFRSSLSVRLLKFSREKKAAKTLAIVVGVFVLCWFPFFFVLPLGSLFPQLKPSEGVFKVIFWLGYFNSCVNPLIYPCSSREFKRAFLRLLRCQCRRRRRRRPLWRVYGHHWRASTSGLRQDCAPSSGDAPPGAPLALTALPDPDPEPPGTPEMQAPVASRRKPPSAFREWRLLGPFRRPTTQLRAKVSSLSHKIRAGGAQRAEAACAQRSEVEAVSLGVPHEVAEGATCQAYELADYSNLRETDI

Chain of Death-associated protein kinase 3 (Homo sapiens) (O43293 whole entry, looked up): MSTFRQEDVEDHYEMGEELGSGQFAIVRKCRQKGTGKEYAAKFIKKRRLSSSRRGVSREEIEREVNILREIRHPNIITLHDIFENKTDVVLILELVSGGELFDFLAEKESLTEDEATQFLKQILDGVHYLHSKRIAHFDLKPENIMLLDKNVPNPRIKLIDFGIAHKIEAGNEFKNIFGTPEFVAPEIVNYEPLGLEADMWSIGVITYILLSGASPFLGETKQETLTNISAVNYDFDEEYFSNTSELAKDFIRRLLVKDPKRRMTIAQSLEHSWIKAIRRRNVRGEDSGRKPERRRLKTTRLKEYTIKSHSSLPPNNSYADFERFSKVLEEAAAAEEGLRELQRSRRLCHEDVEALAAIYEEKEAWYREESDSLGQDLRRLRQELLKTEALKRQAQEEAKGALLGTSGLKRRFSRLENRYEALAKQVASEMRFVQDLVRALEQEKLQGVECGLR
Chain of MAP kinase-activated protein kinase 2 (Homo sapiens) (P49137 whole entry, looked up): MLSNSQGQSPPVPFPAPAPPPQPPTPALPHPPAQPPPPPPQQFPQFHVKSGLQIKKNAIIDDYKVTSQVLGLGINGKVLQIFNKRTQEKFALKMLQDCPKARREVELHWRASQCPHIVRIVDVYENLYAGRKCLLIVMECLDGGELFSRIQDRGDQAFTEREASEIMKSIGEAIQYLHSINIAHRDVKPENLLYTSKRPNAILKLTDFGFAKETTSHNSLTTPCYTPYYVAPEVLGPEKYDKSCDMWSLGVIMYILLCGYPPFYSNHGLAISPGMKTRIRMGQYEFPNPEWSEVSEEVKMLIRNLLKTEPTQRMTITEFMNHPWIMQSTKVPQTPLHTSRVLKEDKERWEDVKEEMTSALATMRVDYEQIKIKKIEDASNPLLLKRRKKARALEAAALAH

CN(C)C(=O)Cn1cc(-c2nc(C3(c4ccc(-c5cnc(N)nc5)cc4)CC3)no2)cn1 [BI 0153]
residual activity [1]: 99%

CN(C)C(=O)Cn1cc(-c2nc([C@@](C)(c3ccc(-c4cnc(N)nc4)cc3)C3CC3)no2)cn1 [BI 665915]
residual activity [2]: 99% | residual activity [3]: 100% | residual activity [4]: 100% | inhibition [5]: -3.06%
